Measured values taken from patent US20070093549A1, “Methods for preparation of ladostigil tartrate crystalline form A1” (priority 2005, published 2007).

Experiments:
[1] = tested on: animal models of Alzheimer's disease; conditions: background statement with literature references; cited from earlier work
[2] = Effect of micronization, pressing and grinding (XRD); type: physicochemical; conditions: pressing 1 minute at 100 metric tons, by XRD
Method: (§1) X-Ray powder diffraction data were obtained by a SCINTAG powder X-Ray diffractometer model X'TRA equipped with a solid state detector. Copper radiation of 1.5418 Å was used. A round aluminum sample holder with round zero background quartz plate, with cavity of 25 (diameter)*0.5 (depth) mm was used.
The effects of micronization, pressing (1 minute at 100 metric tons) and grinding were determined by XRD and the following results were obtained: […]

[3] = Exposure of form A1 to various humidity conditions (TGA and crystal form); type: physicochemical
Method: as §1
TGA analysis was done using a Mettler M3 meter. The weight of the samples was about 10 mg. The samples were scanned at a rate of 10° C./min from 25° C. to 200° C. The oven was constantly purged with nitrogen gas at a flow rate of 40 ml/min. Standard 70 μl alumina crucibles covered by lids with 1 hole were used.
Ladostigil tartrate form A1 was exposed to various humidity conditions at room temperature for 14 days. TGA was performed, and crystal form was analyzed.

[4] = RH 100%, room temperature, 14 days

C#CCN[C@@H]1CCc2ccc(OC(=O)N(C)CC)cc21 [Ladostigil, ethyl-methyl-carbamic acid (R)-3-prop-2-ynylamino-indan-5-yl ester]
efficacy in animal models of Alzheimer's disease [1]: effective

carbamic acid, ethylmethyl-, (3R)-2,3-dihydro-3-(2-propynylamino)-1H-inden-5-yl ester, (2R,3R)-2,3-dihydroxybutanedioate (2:1) [Ladostigil tartrate form A1]
crystallinity after pressing [2]: lose some extent of crystallinity
TGA ([3]; RH 60%, room temperature, 14 days): 0.2
TGA ([3]; RH 80%, room temperature, 14 days): 0.1
Resulting form [3, 4]: transformed to a mixture of Form A and A1
TGA [3, 4]: 0.1
water content change ([3]; after exposure to 100% RH for 14 days): did not change significantly
hygroscopicity ([3]; concluded from humidity exposure results): neither Form A nor Form A1 is hygroscopic
